Test results published in patent US11753397B2, “Cereblon binders for the degradation of ikaros” (C4 Therapeutics, Inc., priority 2018, dated 2023).
Counter-ions that a name gives are not always drawn.

Tested on: NCIH929.1 cells
Test: Cell viability assay (CellTiter-Glo 2.0, ATP quantification)
Type: cell-based
Conditions: NCIH929.1 cell viability, CellTiter-Glo 2.0, 96 hr incubation, top concentration 1 μM
Method in brief: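 Cells seeded at 750/well in RPMI with 10% FBS and 0.05 mM 2-mercaptoethanol, exposed 96 h at 37 °C to 10-point half-log dilutions in duplicate, top 1 μM. Viability by CellTiter-Glo 2.0 ATP luminescence, with a day-0 read as cytostatic baseline (CT0).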

Work on `CC1(CN2CCC(n3cc(CNc4cccc5c4C(=O)N(C4CCC(=O)NC4=O)C5=O)cn3)CC2)CC1` (stereo not shown) [Compound 136, 2-(2,6-dioxopiperidin-3-yl)-4-(((1-(1-((1-methylcyclopropyl)methyl)piperidin-4-yl)-1H-pyrazol-4-yl)methyl)amino)isoindoline-1,3-dione] yielded a GI50 of under 0.001 µM.

`O=C1CCC(N2C(=O)c3cccc(NCc4cnn(C5CCN(C(=O)C6(C(F)(F)F)CC6)CC5)c4)c3C2=O)C(=O)N1` (stereo not shown) [Compound 60, 2-(2,6-dioxopiperidin-3-yl)-4-(((1-(1-(1-(trifluoromethyl)cyclopropane-1-carbonyl)piperidin-4-yl)-1H-pyrazol-4-yl)methyl)amino)isoindoline-1,3-dione] gave a GI50 of under 0.1 µM.

`O=C1CCC(N2C(=O)c3cccc(NCc4cnn(C5CCN(C(=O)CC6CCN(C(=O)c7ccccc7)CC6)CC5)c4)c3C2=O)C(=O)N1` (stereo not shown) [Compound 123, 4-(((1-(1-(2-(1-benzoylpiperidin-4-yl)acetyl)piperidin-4-yl)-1H-pyrazol-4-yl)methyl)amino)-2-(2,6-dioxopiperidin-3-yl)isoindoline-1,3-dione] gave a GI50 of under 0.1 µM.

Work on `CC(C)CC(=O)N1CCC(n2cc(CNc3cccc4c3C(=O)N(C3CCC(=O)NC3=O)C4=O)cn2)CC1` (stereo not shown) [Compound 49, 2-(2,6-dioxopiperidin-3-yl)-4-(((1-(1-(3-methylbutanoyl)piperidin-4-yl)-1H-pyrazol-4-yl)methyl)amino)isoindoline-1,3-dione] yielded a GI50 of under 0.1 µM.

`O=C1CCC(N2C(=O)c3cccc(NCc4cnn(CC5CCOCC5)c4)c3C2=O)C(=O)N1` (stereo not shown) [Compound 155, 2-(2,6-dioxo-3-piperidyl)-4-[[1-(tetrahydropyran-4-ylmethyl)pyrazol-4-yl]methylamino]isoindoline-1,3-dione] was tested, and the GI50 was under 0.1 µM.

For `NC1(C(=O)N2CCC(n3cc(CNc4cccc5c4C(=O)N(C4CCC(=O)NC4=O)C5=O)cn3)CC2)CCC1` (stereo not shown) [Compound 175, 4-[[1-[1-(1-aminocyclobutanecarbonyl)-4-piperidyl]pyrazol-4-yl]methylamino]-2-(2,6-dioxo-3-piperidyl)isoindoline-1,3-dione hydrochloride], the GI50 was under 0.1 µM.

Compound `CC(C)(C)NC(=O)N1CCC(n2cc(CNc3cccc4c3C(=O)N(C3CCC(=O)NC3=O)C4=O)cn2)CC1` (stereo not shown) [Compound 161, 4-(4-{[2-(2,6-Dioxo-piperidin-3-yl)-1,3-dioxo-2,3-dihydro-1H-isoindol-4-ylamino]-methyl}-pyrazol-1-yl)-piperidine-1-carboxylic acid tert-butylamide] has a GI50 of under 0.1 µM.

Work on `CN(C(=O)N1CCC(n2cc(CNc3cccc4c3C(=O)N(C3CCC(=O)NC3=O)C4=O)cn2)CC1)C(C)(C)C` (stereo not shown) [Compound 178, N-(tert-Butyl)-4-(4-(((2-(2,6-dioxopiperidin-3-yl)-1,3-dioxoisoindolin-4-yl)amino)methyl)-1H-pyrazol-1-yl)-N-methylpiperidine-1-carboxamide] yielded a GI50 of under 0.1 µM.

For `COC1(C(=O)N2CCC(n3cc(CNc4cccc5c4C(=O)N(C4CCC(=O)NC4=O)C5=O)cn3)CC2)CCC1` (stereo not shown) [Compound 82, 2-(2,6-dioxopiperidin-3-yl)-4-(((1-(1-(1-methoxycyclobutane-1-carbonyl)piperidin-4-yl)-1H-pyrazol-4-yl)methyl)amino)isoindoline-1,3-dione], the GI50 was under 0.1 µM.

`CC1(C)C[C@H](n2cc(CNc3cccc4c3C(=O)N(C3CCC(=O)NC3=O)C4=O)cn2)CCN1C(=O)C12C3C4C5C3C1C5C42` (stereo partly drawn) [Compound 196, 4-[[1-[(4R)-1-(Cubane-1-carbonyl)-2,2-dimethyl-4-piperidyl]pyrazol-4-yl]methylamino]-2-(2,6-dioxo-3-piperidyl)isoindoline-1,3-dione] gave a GI50 of under 0.001 µM.

With `CCOCC(=O)N1CCC(n2cc(CNc3cccc4c3C(=O)N(C3CCC(=O)NC3=O)C4=O)cn2)CC1` (stereo not shown) [Compound 17, 2-(2,6-dioxopiperidin-3-yl)-4-(((1-(1-(2-ethoxyacetyl)piperidin-4-yl)-1H-pyrazol-4-yl)methyl)amino)isoindoline-1,3-dione] the GI50 was under 0.1 µM.

Work on `O=C1CCC(N2C(=O)c3cccc(NCc4cnn([C@H]5CC[C@H](C(=O)N6CCCCC6)CC5)c4)c3C2=O)C(=O)N1` (stereo partly shown) [Compound 170, 2-(2,6-Dioxopiperidin-3-yl)-4-(((1-((1r,4r)-4-(piperidine-1-carbonyl)cyclohexyl)-1H-pyrazol-4-yl)methyl)amino)isoindoline-1,3-dione] yielded a GI50 of under 0.1 µM.

Work on `CC1(C(=O)N2CCC(n3cc(CNc4cccc5c4C(=O)N(C4CCC(=O)NC4=O)C5=O)cn3)CC2)CCCC1` (stereo not shown) [Compound 62, 2-(2,6-dioxopiperidin-3-yl)-4-(((1-(1-(1-methylcyclopentane-1-carbonyl)piperidin-4-yl)-1H-pyrazol-4-yl)methyl)amino)isoindoline-1,3-dione] yielded a GI50 of under 0.001 µM.

`CC1(C(=O)N2CCC(c3ccccc3)(n3cc(CNc4cccc5c4C(=O)N(C4CCC(=O)NC4=O)C5=O)cn3)CC2)CCC1` (stereo not shown) [Compound 172, 2-(2,6-Dioxopiperidin-3-yl)-4-(((1-(1-(1-methylcyclobutane-1-carbonyl)-4-phenylpiperidin-4-yl)-1H-pyrazol-4-yl)methyl)amino)isoindoline-1,3-dione] gave a GI50 of under 0.1 µM.

`CC1CC(n2cc(CNc3cccc4c3C(=O)N(C3CCC(=O)NC3=O)C4=O)cn2)CC(C)N1C(=O)OC(C)(C)C` (stereo not shown) [Compound 168, tert-Butyl 4-(4-(((2-(2,6-dioxopiperidin-3-yl)-1,3-dioxoisoindolin-4-yl)amino)methyl)-1H-pyrazol-1-yl)-2,6-dimethylpiperidine-1-carboxylate] gave a GI50 of under 0.1 µM.

Work on `CC(C)(C)CC(=O)N1CCC(n2cc(CNc3cccc4c3C(=O)N(C3CCC(=O)NC3=O)C4=O)cn2)CC1` (stereo not shown) [Compound 12, 4-(((1-(1-(3,3-dimethylbutanoyl)piperidin-4-yl)-1H-pyrazol-4-yl)methyl)amino)-2-(2,6-dioxopiperidin-3-yl)isoindoline-1,3-dione] yielded a GI50 of under 0.1 µM.

`O=C1CCC(N2C(=O)c3cccc(NCc4cnn(C5CC5)c4)c3C2=O)C(=O)N1` (stereo not shown) [Compound 163, 4-[(1-Cyclopropyl-1H-pyrazol-4-ylmethyl)-amino]-2-(2,6-dioxo-piperidin-3-yl)-isoindole-1,3-dione] was tested, and the GI50 was under 0.1 µM.

In the case of `CC(C)(N)C(=O)N1CCC(n2cc(CNc3cccc4c3C(=O)N(C3CCC(=O)NC3=O)C4=O)cn2)CC1` (stereo not shown) [Compound 50, 4-(((1-(1-(2-amino-2-methylopropanoyl)piperidin-4-yl)-1H-pyrazol-4-yl)methyl)amino)-2-(2,6-dioxopiperidin-3-yl)isoindoline-1,3-dione], the GI50 is reported as under 0.1 µM.

With `CC12CC(C(=O)N3CCC(n4cc(CNc5cccc6c5C(=O)N(C5CCC(=O)NC5=O)C6=O)cn4)CC3)(C1)C2` (stereo not shown) [Compound 85, 2-(2,6-dioxopiperidin-3-yl)-4-(((1-(1-(3-methylbicyclo[1.1.1]pentane-1-carbonyl)piperidin-4-yl)-1H-pyrazol-4-yl)methyl)amino)isoindoline-1,3-dione] the GI50 was under 0.1 µM.

Compound `O=C1CCC(N2C(=O)c3cccc(NCc4cnn(C5CCN(C(=O)OCC(F)(F)F)CC5)c4)c3C2=O)C(=O)N1` (stereo not shown) [Compound 165, 4-(4-{[2-(2,6-Dioxo-piperidin-3-yl)-1,3-dioxo-2,3-dihydro-1H-isoindol-4-ylamino]-methyl}-pyrazol-1-yl)-piperidine-1-carboxylic acid 2,2,2-trifluoro-ethyl ester] has a GI50 of under 0.1 µM.

In the case of `CC1(C(=O)N2CCC(n3ncc(CNc4cccc5c4C(=O)N(C4CCC(=O)NC4=O)C5=O)c3C#CC3CC3)CC2)CCC1` (stereo not shown) [Compound 190, 4-(((5-(Cyclopropylethynyl)-1-(1-(1-methylcyclobutane-1-carbonyl)piperidin-4-yl)-1H-pyrazol-4-yl)methyl)amino)-2-(2,6-dioxopiperidin-3-yl)isoindoline-1,3-dione], the GI50 is reported as under 0.1 µM.

`CC1(C(=O)N2CCC(n3ncc(CNc4cccc5c4C(=O)N(C4CCC(=O)NC4=O)C5=O)c3C#N)CC2)CCC1` (stereo not shown) [Compound 194, 4-(((2-(2,6-Dioxopiperidin-3-yl)-1,3-dioxoisoindolin-4-yl)amino)methyl)-1-(1-(1-methylcyclobutane-1-carbonyl)piperidin-4-yl)-1H-pyrazole-5-carbonitrile] was tested, and the GI50 was under 0.1 µM.

`O=C1CCC(N2C(=O)c3cccc(NCc4cnn(C5CCN(C(=O)C6(Cc7ccc(F)cc7)CCC6)CC5)c4)c3C2=O)C(=O)N1` (stereo not shown) [Compound 96, 2-(2,6-dioxopiperidin-3-yl)-4-(((1-(1-(1-(4-fluorobenzyl)cyclobutane-1-carbonyl)piperidin-4-yl)-1H-pyrazol-4-yl)methyl)amino)isoindoline-1,3-dione] was tested, and the GI50 was under 0.001 µM.

For `CN(C)CC(=O)N1CCC(n2cc(CNc3cccc4c3C(=O)N(C3CCC(=O)NC3=O)C4=O)cn2)CC1` (stereo not shown) [Compound 37, 4-(((1-(1-(dimethylglycyl)piperidin-4-yl)-1H-pyrazol-4-yl)methyl)amino)-2-(2,6-dioxopiperidin-3-yl)isoindoline-1,3-dione], the GI50 was under 0.1 µM.

Compound `CCn1cc(CNc2cccc3c2C(=O)N(C2CCC(=O)NC2=O)C3=O)cn1` (stereo not shown) [Compound 142, 2-(2,6-dioxopiperidin-3-yl)-4-(((1-ethyl-1H-pyrazol-4-yl)methyl)amino)isoindoline-1,3-dione] has a GI50 of under 0.1 µM.

With `O=C1CCC(N2C(=O)c3cccc(NCc4cnn(C5CCN(C(=O)C(F)(F)C(F)(F)F)CC5)c4)c3C2=O)C(=O)N1` (stereo not shown) [Compound 83, 2-(2,6-dioxopiperidin-3-yl)-4-(((1-(1-(2,2,3,3,3-pentafluoropropanoyl)piperidin-4-yl)-1H-pyrazol-4-yl)methyl)amino)isoindoline-1,3-dione] the GI50 was under 0.1 µM.

`CC(=O)N1CCC(n2cc(CNc3cccc4c3C(=O)N(C3CCC(=O)NC3=O)C4=O)cn2)CC1` (stereo not shown) [Compound 159, 4-[[1-(1-acetyl-4-piperidyl)pyrazol-4-yl]methylamino]-2-(2,6-dioxo-3-piperidyl)isoindoline-1,3-dione] gave a GI50 of under 0.1 µM.

Compound `O=C1CCC(N2C(=O)c3cccc(NCc4cnn(C5CN(c6ccccc6)C5)c4)c3C2=O)C(=O)N1` (stereo not shown) [Compound 181, 2-(2,6-Dioxo-piperidin-3-yl)-4-{[1-(1-phenyl-azetidin-3-yl)-1H-pyrazol-4-ylmethyl]-amino}-isoindole-1,3-Dione] has a GI50 of under 0.1 µM.
